Tested on: hESC-derived OPCs
Assay: Stage VI terminal differentiation of hESC-derived OPCs
Format: cell-based, human
Experimental: Stage VI; for terminal differentiation, these cells were plated onto poly-L-ornithine (10 μg/mL, Sigma-Aldrich) and mouse laminin (10 μg/mL, Life technologies) coated plates in N2/B27 medium supplemented with T3 (50 ng/mL, Sigma-Aldrich) for 21 days to induce pre-OLs.

N[C@@H](Cc1cc(I)c(Oc2ccc(O)c(I)c2)c(I)c1)C(=O)O [T3, Triiodothyronine]
terminal differentiation of OPCs into O4+ pre-OLs and MBP+ pre-myelinating OLs: promoted terminal differentiation

From patent publication US10640748B2, “Oligodendroglial cell culturing methods and in methods for treating neurodegenerative disorders by using thyroid hormones or analogues” (NeuOrphan Pty Ltd, priority 2014, dated 2020)
